Assay results from patent US9079896B2, “Urotensin II receptor antagonists” (Janssen Pharmaceutica NV, priority 2008, dated 2015).

What was measured:
[1] = target: T1, rat GPR14 (U-II receptor) (Rattus norvegicus, UniProt P49684); assay: Rat UII Calcium Mobilization FLIPR Assay; format: cell-based; settings: antagonist activity after 5 min incubation vs agonist (Ac)-CFWK(2-NaI)C-NH2 at 1 nM; CHO cells transfected with rat GPR14
T1 construct: expressed in transfected cells
T1 sequence (P49684 1-386): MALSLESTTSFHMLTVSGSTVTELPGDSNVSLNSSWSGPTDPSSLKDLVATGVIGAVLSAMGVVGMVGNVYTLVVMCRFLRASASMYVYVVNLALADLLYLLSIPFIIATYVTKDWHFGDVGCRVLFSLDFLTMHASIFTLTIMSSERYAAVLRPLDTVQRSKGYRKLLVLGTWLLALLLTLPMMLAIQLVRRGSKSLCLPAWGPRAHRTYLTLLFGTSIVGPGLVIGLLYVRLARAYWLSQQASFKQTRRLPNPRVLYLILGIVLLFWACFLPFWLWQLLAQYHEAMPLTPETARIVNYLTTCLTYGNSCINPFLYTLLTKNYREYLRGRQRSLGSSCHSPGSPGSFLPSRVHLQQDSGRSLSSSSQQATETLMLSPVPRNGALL
Source text: A calcium mobilization assay based on a Fluorescence Imaging Plate
Res. Commun. 1995, 209, 752-759. A. Marchese, M. Heiber, T. Nguyen, H. H. Heng, V. R. Saldivia, R. Cheng, P. M. Murphy, L. C. Tsui, X. Shi, P. Gregor, Genomics 1995, 29, 335-344.).
To derive these cells, the complete coding sequence of rat U-II (Genbank Accession No. U32673) was amplified by nested PCR from rat heart marathon-Ready cDNA. […] The PCR products were cloned into pcDNA3 (Invitrogen) digested with EcoR I and Xba I. Clones containing rat U-II receptor were verified by complete sequencing of the U-II receptor insert to ensure a lack of PCR-introduced errors. The constructed vector was transfected into CHO cells by using lipofectamine (GIBCO BRL). CHO cells with high expression of rat U-II receptor were selected and established as stable cell lines by using G418. CHO cells were seeded at 25,000 cells per well into 96-well, black-wall, clear-bottom microtiter plates 24 h before assay. Cells in culture media (DMEM/F12 containing 15 mM HEPES, L-glutamine, pyridoxine hydrochloride; 10% fetal bovine serum; 1 mg/mL G418 sulfate; antibiotic-antimycotic; pH 7.4) were loaded with proprietary dye, from the FLIPR Calcium Assay Kit (Molecular Devices), prepared in assay buffer (Hanks Balanced Salts Solution, 20 mM HEPES, 0.1% BSA, 2.5 mM probenecid, pH 7.4), and incubated for 1 h at 37° C. […]

[2] = target: T2, UT receptors in Human Skeletal Muscle Myoblasts (HSMM) (Homo sapiens, UniProt Q9UKP6); settings: read-out: Human UII Average Binding Ki; 0.150 nM (125I)-U-II, intact HSMM, 3 h, 25° C.
T2 sequence (Q9UKP6 1-389): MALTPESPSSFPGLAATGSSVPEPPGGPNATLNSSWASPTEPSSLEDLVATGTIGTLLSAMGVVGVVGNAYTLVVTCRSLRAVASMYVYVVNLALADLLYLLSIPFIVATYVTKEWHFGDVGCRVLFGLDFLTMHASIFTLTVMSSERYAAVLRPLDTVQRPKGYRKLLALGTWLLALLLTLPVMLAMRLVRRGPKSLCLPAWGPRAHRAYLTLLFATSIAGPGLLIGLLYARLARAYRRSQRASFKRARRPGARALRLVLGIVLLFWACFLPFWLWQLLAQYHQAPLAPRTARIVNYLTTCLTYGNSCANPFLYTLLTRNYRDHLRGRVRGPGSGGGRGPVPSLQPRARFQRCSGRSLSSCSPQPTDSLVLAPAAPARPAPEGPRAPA

[3] = target: T3, Human UII (6D9 human rhabdomyosarcoma cells) (Homo sapiens, UniProt Q9UKP6); assay: Human UII Calcium Mobilization Assay; format: cell-based; settings: FLIPR TETRA, column head prints Ki (μM), read-out: Human UII Ca+ Mobilization Average IC50
T3 construct: 6D9: isolated by dilution subcloning of RMS13 cells; host or cells: 6D9 human rhabdomyosarcoma cells (subclone of RMS13)
T3 sequence (Q9UKP6 1-389): T2 sequence (Q9UKP6 1-389)
Experimental: 25 μL of dye solution was added to the wells such that the final liquid volume before agonist/antagonist treatment was 50 μL for all assays. The cell plates were incubated at 37° C. for 45 minutes and the fluorescence intensity was measured on a Fluorometric Imaging Plate Reader (FLIPR^TETRA, Molecular Devices, Sunnyvale, Calif.).
Antagonist and agonist U-II were added at room temperature on the FLIPR^TETRA, and the fluorescence intensity before and after addition was measured over a period of 4 minutes. The dye incubation time and temperature as well as instrument setting was adjusted so the fluorescence intensity could be compared between plates on the same day. EC50 and IC50 were analyzed using GraphPad Prism 4 software (GraphPad Software Inc., San Diego, Calif.).
For assays, U-II agonist, U-II antagonist and urantide were diluted with HBSS/HEPES containing 0.01% FBS.
Test compounds were dissolved in DMSO at 10 mM concentration. The serial dilutions were carried out in HBSS/HEPES. The highest final DMSO concentration was at 0.1%.

[4] = target: T1, rat GPR14 (U-II receptor); settings: agonist cyclic peptide used in the assay; read-out: FLIPR EC50; cited from earlier work
rU-II = target: T4, rU-II (Rattus norvegicus, UniProt P49684); settings: agonist cyclic peptide used in the assay; cited from earlier work
T4 sequence (P49684 1-386): T1 sequence (P49684 1-386)

[5] = tested on: isolated arterial rings of rats and humans; settings: read-out: EC50 (concentration-dependent contraction); cited from earlier work

Q: For `CCN1CCN(c2cccc3c2[C@H]2CCC[C@H](c4ccc(OC)c(OC)c4)N2C3=O)CC1` [Compound 1, (R,R)-4-(3,4-Dimethoxy-phenyl)-10-(4-ethyl-piperazin-1-yl)-1,3,4,10b-tetrahydro-2H-pyrido[2,1-a]isoindol-6-one], which Ki [1] is on record?
A: 6 nM

Q: And the Ki [2]?
A: 64 nM

Q: What about the IC50 [3] of the same compound?
A: 0.34 µM

Q: With `CCN1CCN(c2cccc3c2[C@H]2CCCC[C@H](c4ccc(OC)c(OC)c4)N2C3=O)CC1` [Compound 2, (R,R)-7-(3,4-Dimethoxy-phenyl)-1-(4-ethyl-piperazin-1-yl)-7,8,9,10,11,11a-hexahydro-azepino[2,1-a]isoindol-5-one] as the compound, how does the Ki [1] read?
A: 34 nM

Q: Which results are given for (Ac)-CFWK(2-NaI)C—NH2?
A: EC50 [4]: 0.54 ± 0.2 nM; Ki (rU-II): 0.12 ± 0.05 nM

Q: With “AGTAD-cyclo(CFWKYC)-V [Goby U-II, urotensin-II isolated from the urophysis of the goby fish, a 12-mer]” as the compound, how does the EC50 [5] read?
A: < 1 nM
